Assay results: PubChem BioAssay AID248 (DTP/NCI, 2004)
Values joined by “and” are separate entries in the source; they are usually repeats but may differ in a detail not shown here. Identical values can stand only once. Inconclusive results and toxic doses are left out. No stated cut-off is given here; in the data, active means T/C of 150% or more; inactive means T/C below 125%.

Test system: L1210 leukemia ip in BDF1 mice, survival T/C
Assay: NCI In Vivo Anticancer Drug Screen. Data for tumor model L1210 Leukemia (intraperitoneal) in B6D2F1 (BDF1) mice
Settings: endpoint: mean survival time, higher = longer survival
Outline: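 Ratio derived from survival: compound-dosed mice over vehicle-dosed mice, all bearing a transplantable tumor.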

[1] = dose: 100.0 mg/kg/injection, schedule: Q04DX002 (ip), vehicle: Klucel (hydroxypropylcellulose) (HPC)
[2] = dose: 200.0 mg/kg/injection, schedule: Q04DX002 (ip), vehicle: Klucel (hydroxypropylcellulose) (HPC)
[3] = dose: 400.0 mg/kg/injection, schedule: Q04DX002 (ip), vehicle: Klucel (hydroxypropylcellulose) (HPC)
[4] = dose: 50.0 mg/kg/injection, schedule: Q01DX009 (ip), vehicle: Klucel (hydroxypropylcellulose) (HPC)
[5] = dose: 100.0 mg/kg/injection, schedule: Q01DX009 (ip), vehicle: Klucel (hydroxypropylcellulose) (HPC)
[6] = dose: 100.0 mg/kg/injection, schedule: Q04DX003 (ip), vehicle: saline with Tween-80
[7] = dose: 200.0 mg/kg/injection, schedule: Q04DX003 (ip), vehicle: saline with Tween-80
[8] = dose: 400.0 mg/kg/injection, schedule: Q04DX003 (ip), vehicle: saline with Tween-80
[9] = dose: 100.0 mg/kg/injection, schedule: Q04DX003 (ip), vehicle: Klucel (hydroxypropylcellulose) (HPC)
[10] = dose: 200.0 mg/kg/injection, schedule: Q04DX003 (ip), vehicle: Klucel (hydroxypropylcellulose) (HPC)
[11] = dose: 400.0 mg/kg/injection, schedule: Q04DX003 (ip), vehicle: Klucel (hydroxypropylcellulose) (HPC)
[12] = dose: 200.0 mg/kg/injection, schedule: Q01DX009 (ip), vehicle: Klucel (hydroxypropylcellulose) (HPC)
[13] = dose: 100.0 mg/kg/injection, schedule: Q04DX003 (ip), vehicle: saline
[14] = dose: 100.0 mg/kg/injection, schedule: Q01DX001 (ip), vehicle: saline with Tween-80
[15] = dose: 200.0 mg/kg/injection, schedule: Q01DX001 (ip), vehicle: saline with Tween-80
[16] = dose: 400.0 mg/kg/injection, schedule: Q01DX001 (ip), vehicle: saline with Tween-80

Measured: T/C

CSc1ncnc2c1nc[n]2[Sn]([c]1ccccc1)([c]1ccccc1)[c]1ccccc1.CSc1ncnc2nc[nH]c12
inactive: dose: 5.0 mg/kg/injection, schedule: Q01DX001 (ip), vehicle: other 108 % of control | dose: 10.0 mg/kg/injection, schedule: Q01DX001 (ip), vehicle: other 104 % of control | dose: 20.0 mg/kg/injection, schedule: Q01DX001 (ip), vehicle: other 111 % of control

O=C([O-])c1ccccc1[S+](c1ccccc1)c1ccccc1
inactive: dose: 18.0 mg/kg/injection, schedule: Q04DX002 (ip), vehicle: saline with Tween-80 104 % of control

O=C(O)C12C3CCC(O3)C1(C(=O)O)C1CCC2O1 (configuration not stated)
inactive: [1] 104 % of control | [2] 104 % of control | [3] 104 % of control

Cc1c(Cl)cccc1NC(=O)Nc1ccccc1
inactive: dose: 25.0 mg/kg/injection, schedule: Q01DX009 (ip), vehicle: DMSO 95 % of control | dose: 50.0 mg/kg/injection, schedule: Q01DX009 (ip), vehicle: DMSO 95 % of control | dose: 100.0 mg/kg/injection, schedule: Q01DX009 (ip), vehicle: DMSO 88 % of control | dose: 100.0 mg/kg/injection, schedule: Q04DX003 (sc), vehicle: olive oil, sesame oil, peanut oil 95 % of control | dose: 200.0 mg/kg/injection, schedule: Q04DX003 (sc), vehicle: olive oil, sesame oil, peanut oil 99 % of control | dose: 400.0 mg/kg/injection, schedule: Q04DX003 (sc), vehicle: olive oil, sesame oil, peanut oil 114 % of control

CC1C(c2ccccc2)N1C(=O)Nc1ccccc1 (configuration not stated)
inactive: dose: 100.0 mg/kg/injection, schedule: Q01DX001 (ip), vehicle: Klucel (hydroxypropylcellulose) (HPC) 93 % of control | dose: 200.0 mg/kg/injection, schedule: Q01DX001 (ip), vehicle: Klucel (hydroxypropylcellulose) (HPC) 96 % of control | dose: 400.0 mg/kg/injection, schedule: Q01DX001 (ip), vehicle: Klucel (hydroxypropylcellulose) (HPC) 98 % of control

C=CS(=O)(=O)c1ccccc1
inactive: dose: 18.0 mg/kg/injection, schedule: Q04DX003 (ip), vehicle: saline with Tween-80 102 % of control | dose: 25.0 mg/kg/injection, schedule: Q01DX009 (ip), vehicle: Klucel (hydroxypropylcellulose) (HPC) 91 % of control | dose: 36.0 mg/kg/injection, schedule: Q04DX003 (ip), vehicle: saline with Tween-80 104 % of control | [4] 91 % of control | dose: 72.0 mg/kg/injection, schedule: Q04DX003 (ip), vehicle: saline with Tween-80 98 % of control | [5] 94 % of control | [6] 97 % of control | [7] 92 % of control | [8] 95 % of control

CCOc1ccc(Nc2nc(=O)[nH]c3ccccc23)cc1CN(CCCl)CCCl
inactive: dose: 25.0 mg/kg/injection, schedule: Q04DX002 (ip), vehicle: saline 104 % of control | dose: 50.0 mg/kg/injection, schedule: Q04DX002 (ip), vehicle: saline 100 % of control | dose: 100.0 mg/kg/injection, schedule: Q04DX002 (ip), vehicle: saline 111 % of control | dose: 200.0 mg/kg/injection, schedule: Q04DX002 (ip), vehicle: saline 95 % of control and 111 % of control | dose: 400.0 mg/kg/injection, schedule: Q04DX002 (ip), vehicle: saline 95 % of control

O=C(/C=C/c1cccc2ccccc12)c1ccc(Cl)cc1
inactive: [9] 105 % of control | [10] 96 % of control | [11] 94 % of control

O=C(O)c1c(F)cccc1F
inactive: dose: 25.0 mg/kg/injection, schedule: Q04DX003 (ip), vehicle: saline with Tween-80 91 % of control | dose: 50.0 mg/kg/injection, schedule: Q04DX003 (ip), vehicle: saline with Tween-80 91 % of control | [9] 95 % of control | [6] 88 % of control | [11] 88 % of control

C=CCN(CC=C)C(=S)NC(=O)c1ccccc1
inactive: [5] 110 % of control | [12] 104 % of control

O=C1c2ccccc2C(=O)c2c1ccc1c2CCCC1
inactive: [4] 91 % of control | [5] 94 % of control | [12] 100 % of control

Cc1cc([N+](=O)[O-])cc(C)c1OC(=O)c1ccc(N=C(N)N)cc1
inactive: dose: 3.12 mg/kg/injection, schedule: Q01DX009 (ip), vehicle: saline 94 % of control | dose: 6.25 mg/kg/injection, schedule: Q01DX009 (ip), vehicle: saline 93 % of control | dose: 12.5 mg/kg/injection, schedule: Q01DX009 (ip), vehicle: saline 103 % of control | dose: 25.0 mg/kg/injection, schedule: Q01DX009 (ip), vehicle: saline 97 % of control and 107 % of control | dose: 25.0 mg/kg/injection, schedule: Q04DX003 (ip), vehicle: saline 111 % of control | dose: 50.0 mg/kg/injection, schedule: Q01DX009 (ip), vehicle: saline 103 % of control and 92 % of control | dose: 50.0 mg/kg/injection, schedule: Q04DX003 (ip), vehicle: saline 105 % of control | [13] 100 % of control

O=NN(CCCl)C(=O)Nc1ccc(CC(=O)O)cc1
active: dose: 8.0 mg/kg/injection, schedule: Q01DX001 (ip), vehicle: carboxymethylcellulose (CMC) 154 % of control | dose: 12.0 mg/kg/injection, schedule: Q01DX001 (ip), vehicle: carboxymethylcellulose (CMC) 189 % of control | dose: 18.0 mg/kg/injection, schedule: Q01DX001 (ip), vehicle: carboxymethylcellulose (CMC) 226 % of control | dose: 26.0 mg/kg/injection, schedule: Q01DX001 (ip), vehicle: carboxymethylcellulose (CMC) 236 % of control

COC(=O)C1=CNC=C(C(=O)OC)C1c1ccc(OC)cc1
inactive: [6] 95 % of control | [7] 96 % of control | [8] 95 % of control

O=c1ccc2cc3ccc(=O)oc3cc2o1
inactive: [14] 97 % of control | [15] 97 % of control | [16] 87 % of control

COc1cc(N(C)C)ccc1C=O
inactive: [4] 93 % of control | [5] 101 % of control | [9] 100 % of control | [12] 105 % of control | [10] 101 % of control | dose: 400.0 mg/kg/injection, schedule: Q01DX009 (ip), vehicle: Klucel (hydroxypropylcellulose) (HPC) 105 % of control | [11] 97 % of control

COc1ccc(/C=C2\C=Nc3ccccc32)cc1
inactive: [1] 94 % of control | [2] 97 % of control | [3] 108 % of control

CCCCc1nc2c(O)ccc(O)c2nc1C
inactive: dose: 75.0 mg/kg/injection, schedule: Q01DX001 (ip), vehicle: other 93 % of control | dose: 75.0 mg/kg/injection, schedule: Q04DX003 (ip), vehicle: other 101 % of control | dose: 150.0 mg/kg/injection, schedule: Q01DX001 (ip), vehicle: other 88 % of control | dose: 150.0 mg/kg/injection, schedule: Q04DX003 (ip), vehicle: other 104 % of control | dose: 300.0 mg/kg/injection, schedule: Q01DX001 (ip), vehicle: other 87 % of control

O=C1c2cscc2C(=O)c2sccc21
inactive: [14] 100 % of control | [15] 102 % of control | [16] 96 % of control

NNC(=O)CNc1ccccc1Cl
inactive: [1] 112 % of control | [2] 108 % of control

CC(=O)NCCOc1ccc(N)cc1
inactive: [13] 104 % of control | dose: 200.0 mg/kg/injection, schedule: Q04DX003 (ip), vehicle: saline 98 % of control | dose: 400.0 mg/kg/injection, schedule: Q04DX003 (ip), vehicle: saline 98 % of control

O=P(N1CCCC1)(N1CC1)N1CC1
active: dose: 4.5 mg/kg/injection, schedule: Q01DX Z (ip), vehicle: carboxymethylcellulose (CMC) 160 % of control
inactive: dose: 1.3 mg/kg/injection, schedule: Q01DX Z (ip), vehicle: carboxymethylcellulose (CMC) 94 % of control | dose: 2.0 mg/kg/injection, schedule: Q01DX Z (ip), vehicle: carboxymethylcellulose (CMC) 109 % of control | dose: 2.0 mg/kg/injection, schedule: Q01DX Z (ip), vehicle: saline 114 % of control and 120 % of control | dose: 3.0 mg/kg/injection, schedule: Q01DX Z (ip), vehicle: carboxymethylcellulose (CMC) 109 % of control | dose: 7.5 mg/kg/injection, schedule: Q01DX Z (ip), vehicle: saline 118 % of control

CC(=O)c1cc(C)ccc1O
inactive: [9] 93 % of control | [10] 92 % of control
